Test results as given in patent US10072011B2, “Substituted bridged urea analogs as sirtuin modulators” (GlaxoSmithKline Intellectual Property (No.2) Limited, priority 2014, dated 2018).

Biological target: T1, SIRT1 (Homo sapiens, UniProt Q96EB6)
T1 sequence (Q96EB6 1-747): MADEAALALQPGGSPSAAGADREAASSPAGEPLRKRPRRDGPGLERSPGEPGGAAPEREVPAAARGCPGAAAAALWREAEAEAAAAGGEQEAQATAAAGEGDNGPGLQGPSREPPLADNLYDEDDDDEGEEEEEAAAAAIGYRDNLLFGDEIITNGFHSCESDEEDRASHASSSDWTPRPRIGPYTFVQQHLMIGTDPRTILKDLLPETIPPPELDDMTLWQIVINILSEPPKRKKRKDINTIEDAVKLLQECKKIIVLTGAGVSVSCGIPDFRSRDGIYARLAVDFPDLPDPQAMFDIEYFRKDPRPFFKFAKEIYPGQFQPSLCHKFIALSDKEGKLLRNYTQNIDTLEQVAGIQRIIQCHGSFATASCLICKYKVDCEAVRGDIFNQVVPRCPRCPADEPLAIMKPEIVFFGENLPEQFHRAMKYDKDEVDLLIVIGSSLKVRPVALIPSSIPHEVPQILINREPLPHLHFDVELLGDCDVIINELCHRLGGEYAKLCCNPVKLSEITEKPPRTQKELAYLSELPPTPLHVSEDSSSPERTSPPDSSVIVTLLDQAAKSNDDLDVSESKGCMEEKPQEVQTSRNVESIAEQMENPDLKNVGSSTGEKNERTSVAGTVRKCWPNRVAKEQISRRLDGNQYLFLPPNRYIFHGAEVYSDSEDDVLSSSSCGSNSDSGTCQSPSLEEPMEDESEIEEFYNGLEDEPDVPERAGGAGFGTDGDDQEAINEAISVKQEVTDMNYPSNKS
Test: Trp mass spectrometry assay of SIRT1 activation (Ac-R-H-K-K(Ac)-W-NH2 peptide)
Format: biochemical
Settings: Trp peptide 0.5 μM, 120 μM βNAD+, 10 nM SIRT1, 25 min at 25° C.; for Emax: 25 min, read-out: TRP MAX RESP (percent maximum fold activation)
Procedure, shortened: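 Mass spectrometry read-out (OAADPR formed, or deacetylated Trp peptide) after a 25 min NAD-dependent deacetylation by E. coli-expressed His-SIRT1, stopped with formic acid.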

Compound | Emax (relative to control (100%)) [%] | TRP Activity (EC1.5, concentration of test compound that results in 150% activation of SIRT1) | TRP MAX RESP (percent maximum fold activation) (relative to control (100%))
O=C(NCC1CC1)c1ccc2c(n1)N(C(=O)Nc1ccc(F)cn1)[C@H]1CCN2C1 [Example 38, (4S)—N7-(cyclopropylmethyl)-N5-(5-fluoropyridin-2-yl)-3,4-dihydro-1,4-methanopyrido[2,3-b][1,4]diazepine-5,7(2H)-dicarboxamide] | > 150 | A (EC1.5<1 μM) | 
C[C@@H](NC(=O)c1ccc2c(n1)N(C(=O)Nc1ncco1)[C@H]1CCN2C1)C(F)(F)F [Example 75, (4S)—N5-(oxazol-2-yl)-N7-((R)-1,1,1-trifluoropropan-2-yl)-3,4-dihydro-1,4-methanopyrido[2,3-b][1,4]diazepine-5,7(2H)-dicarboxamide] | > 150 | A (EC1.5<1 μM) | 
C[C@@H](NC(=O)c1ccc2c(n1)N(C(=O)Nc1cc(-c3cncn3C)ccn1)[C@H]1CCN2C1)C(F)(F)F [Example 86, (4S)—N5-(4-(1-methyl-1H-imidazol-5-yl)pyridin-2-yl)-N7-((R)-1,1,1-trifluoropropan-2-yl)-3,4-dihydro-1,4-methanopyrido[2,3-b][1,4]diazepine-5,7(2H)-dicarboxamide] | > 150 | A (EC1.5<1 μM) | 
COCC(NC(=O)c1ccc2c(n1)N(C(=O)Nc1ccccn1)[C@H]1CCN2C1)C1CC1 (single isomer, unassigned) [Example 60] |  | A (EC1.5<1 μM) | 
CC(=O)Nc1ccnc(NC(=O)N2c3nc(C(=O)NCC(F)(F)F)ccc3N3CC[C@H]2C3)c1 [Example 167, (4S)—N5-(4-acetamidopyridin-2-yl)-N7-(2,2,2-trifluoroethyl)-3,4-dihydro-1,4-methanopyrido[2,3-b][1,4]diazepine-5,7(2H)-dicarboxamide] | > 150 | A (EC1.5<1 μM) | 
C[C@@H](NC(=O)c1ccc2c(n1)N(C(=O)Nc1cc(-c3ccn(C)n3)ccn1)[C@H]1CCN2C1)C(F)(F)F [Example 85, (4S)—N5-(4-(1-methyl-1H-pyrazol-3-yl)pyridin-2-yl)-N7-((R)-1,1,1-trifluoropropan-2-yl)-3,4-dihydro-1,4-methanopyrido[2,3-b][1,4]diazepine-5,7(2H)-dicarboxamide] | > 150 | A (EC1.5<1 μM) | 

Results, then the compound that gave them:

Emax (relative to control (100%)) [%] | TRP Activity (EC1.5, concentration of test compound that results in 150% activation of SIRT1) | TRP MAX RESP (percent maximum fold activation) (relative to control (100%)) | Compound
> 150 | A (EC1.5<1 μM) |  | O=C(NCC(F)(F)F)c1cc(O)c2c(n1)N(C(=O)Nc1ccccn1)[C@H]1CCN2C1 [Example 261, (4S)-9-hydroxy-N5-(pyridin-2-yl)-N7-(2,2,2-trifluoroethyl)-3,4-dihydro-1,4-methanopyrido[2,3-b][1,4]diazepine-5,7(2H)-dicarboxamide]
> 150 | A (EC1.5<1 μM) |  | Cc1cc(C(=O)N[C@H](C)C(F)(F)F)nc2c1N1CC[C@@H](C1)N2C(=O)Nc1ccc(OC[C@@H](O)CO)cn1 [Example 290, (4S)—N5-(5-((S)-2,3-dihydroxypropoxy)pyridin-2-yl)-9-methyl-N7-((R)-1,1,1-trifluoropropan-2-yl)-3,4-dihydro-1,4-methanopyrido[2,3-b][1,4]diazepine-5,7(2H)-dicarboxamide]
< 150 | A (EC1.5<1 μM) |  | CCNC(=O)c1ccnc(NC(=O)N2c3nc(C(=O)N[C@H](C)C(F)(F)F)ccc3N3CC[C@H]2C3)c1 [Example 304, (4S)—N5-(4-(ethylcarbamoyl)pyridin-2-yl)-N7-((R)-1,1,1-trifluoropropan-2-yl)-3,4-dihydro-1,4-methanopyrido[2,3-b][1,4]diazepine-5,7(2H)-dicarboxamide]
> 150 | B (EC1.5 1-25 μM) |  | CN(CC(F)(F)F)C(=O)c1ccc2c(n1)N(C(=O)Nc1ccccn1)[C@H]1CCN2C1 [Example 254, (4S)—N7-methyl-N5-(pyridin-2-yl)-N7-(2,2,2-trifluoroethyl)-3,4-dihydro-1,4-methanopyrido[2,3-b][1,4]diazepine-5,7(2H)-dicarboxamide]
> 150 | A (EC1.5<1 μM) |  | C[C@@H](NC(=O)c1ccc2c(n1)N(C(=O)Nc1ccsn1)[C@H]1CCN2C1)C(F)(F)F [Example 190, (4S)—N5-(isothiazol-3-yl)-N7-((R)-1,1,1-trifluoropropan-2-yl)-3,4-dihydro-1,4-methanopyrido[2,3-b][1,4]diazepine-5,7(2H)-dicarboxamide]
< 150 | A (EC1.5<1 μM) |  | C[C@@H](NC(=O)c1ccc2c(n1)N(C(=O)Nc1cc(O)ccn1)[C@H]1CCN2C1)C(F)(F)F [Example 301, (4S)—N5-(4-hydroxypyridin-2-yl)-N7-((R)-1,1,1-trifluoropropan-2-yl)-3,4-dihydro-1,4-methanopyrido[2,3-b][1,4]diazepine-5,7(2H)-dicarboxamide]
> 150 | B (EC1.5 1-25 μM) |  | O=C(NCC1CC1)c1ccc2c(n1)N(C(=O)Nc1ccncn1)[C@H]1CCN2C1 [Example 219, (4S)—N7-(cyclopropylmethyl)-N5-(pyrimidin-4-yl)-3,4-dihydro-1,4-methanopyrido[2,3-b][1,4]diazepine-5,7(2H)-dicarboxamide]
< 150 | B (EC1.5 1-25 μM) |  | Cc1ccc2c(NC(=O)N3c4nc(C(=O)N[C@H](C)C(F)(F)F)c(Cl)cc4N4CC[C@H]3C4)n[nH]c2n1 [Example 316, (4S)-8-chloro-N5-(6-methyl-1H-pyrazolo[3,4-b]pyridin-3-yl)-N7-((R)-1,1,1-trifluoropropan-2-yl)-3,4-dihydro-1,4-methanopyrido[2,3-b][1,4]diazepine-5,7(2H)-dicarboxamide]
 | B (EC1.5 1-25 μM) | A (Fold activation≥150%) | O=C(NC(CCO)C(F)(F)F)c1ccc2c(n1)N(C(=O)Nc1ccccn1)[C@H]1CCN2C1 (single isomer, unassigned) [Example 248]
